The values below come from ChEMBL document CHEMBL4715749, “Synthesis of 17β-N-arylcarbamoylandrost-4-en-3-one derivatives and their anti-proliferative effect on human androgen-sensitive LNCaP cell line” (Eur J Med Chem, 2016).

In series [1] the test system is LNCaP. The series can be described thus: Antiproliferative activity against androgen-sensitive human LNCAP cells assessed as inhibition of cell growth at 50 uM incubated for 48 hrs by sulforhodamine B assay relative to control. The format is functional.
Series [2] concerns LNCaP. The series can be described thus: Antiproliferative activity against androgen-sensitive human LNCAP cells assessed as inhibition of testosterone-induced cell growth at 50 uM incubated for 48 hrs by sulforhodamine B assay relative to control. The format is functional. For orientation: The SRB assay estimates cell density from bound dye.
Series [3] has as its system LNCaP. Nature of the series: Antiproliferative activity against androgen-sensitive human LNCAP cells assessed as inhibition of DHT-induced cell growth at 50 uM incubated for 48 hrs by sulforhodamine B assay relative to control. The format is functional.
Series [4] is described as follows: Cytotoxicity against Wistar rat PBMC assessed as inhibition of cell growth at 50 uM incubated for 24 hrs by sulforhodamine B assay relative to control. The settings on record: for inhibition at 24 h, 50 µM: Wistar, peripheral blood mononuclear cells (PBMC); for Activity: pbmc, 24 h, 50 µM. The class given is tissue-based.
The test system of series [5] is LNCaP. The series can be described thus: Growth inhibition of androgen-sensitive human LNCAP cells incubated for 48 hrs by sulforhodamine B assay. The class given is functional.
In another series the test system is PC-3. The series can be described thus: Growth inhibition of androgen-insensitive human PC3 cells incubated for 48 hrs by sulforhodamine B assay. The format is functional.

The source made the active and inactive calls. The calls are words filed in the database; no cut-off is given here.

As a reminder, the inhibition is the change of the read-out against control, counted positive when it falls. What is called GI50 is the concentration that inhibits growth by half. The low end stands for more potent growth inhibition, the high end for less potent growth inhibition.

For `C[C@]12CC[C@H]3[C@@H](CCC4=CC(=O)CC[C@@]43C)[C@@H]1CC[C@@H]2C(=O)Nc1nccs1`, the inhibition at 50 µM in the series on LNCaP [1], in the series on LNCaP [2] and in the series on LNCaP [3] was 100% each time. In addition, the inhibition at 24 h, 50 µM in series [4] amounted to 16.8%. Further, the GI50 was 16 µM in the series with LNCaP [5] and 6.6 µM with PC-3.
Take `CC(C)C(=O)Nc1ccc([N+](=O)[O-])c(C(F)(F)F)c1` [FLUTAMIDE]: the inhibition at 50 µM in the series on LNCaP [1] was -3.4%; in the series on LNCaP [2], 29.6%; in the series on LNCaP [3], 25.1%. In series [4], the Activity result was “Non-Toxic”.
Consider `C[C@]12CC[C@H]3[C@@H](CCC4=CC(=O)CC[C@@]43C)[C@@H]1CC[C@@H]2C(=O)Nc1cc(C(F)(F)F)cc(C(F)(F)F)c1`, for which the inhibition at 50 µM with LNCaP [1], in the series with LNCaP [2] and with LNCaP [3] was 100% in each case. In series [4], the inhibition at 24 h, 50 µM came to 9.1%. Further, the concentration for 50% growth inhibition (GI50) with LNCaP [5] amounted to 12.8 µM; in the series on PC-3, 14.2 µM.
In the case of `CC(=O)N1CCN(c2ccc(OCC3COC(Cn4ccnc4)(c4ccc(Cl)cc4Cl)O3)cc2)CC1` (centres undefined) [KETOCONAZOLE], the inhibition at 50 µM in the series with LNCaP [1] is 82.7%; with LNCaP [2] it was 76%; in the series on LNCaP [3], 68.2%. In addition, the figures for the GI50 in the series on LNCaP [5] and in the series on PC-3 were 25 µM and 11.7 µM, respectively.
As for `C[C@]12CC[C@H]3[C@@H](CCC4=CC(=O)CC[C@@]43C)[C@@H]1CC[C@@H]2C(=O)N1CCc2ccccc21`, the inhibition at 50 µM in the series with LNCaP [1] stood at 69.1%; with LNCaP [2], 49.9%; in the series on LNCaP [3] it was 52.6%. Besides, in series [4], the Activity result is recorded as “Non-Toxic”.
`Cc1ccc(NC(=O)[C@H]2CC[C@H]3[C@@H]4CCC5=CC(=O)CC[C@]5(C)[C@H]4CC[C@]23C)cc1`: the inhibition at 50 µM was 25.6% in the series with LNCaP [1], 43.3% with LNCaP [2] and 27.5% in the series with LNCaP [3]. In series [4], the inhibition at 24 h, 50 µM was 13%.
As for `C[C@]12CC[C@H]3[C@@H](CCC4=CC(=O)CC[C@@]43C)[C@@H]1CC[C@@H]2C(=O)Nc1ccc(Cl)cc1`, the inhibition at 50 µM in the series with LNCaP [1] was -6.1%; in the series with LNCaP [2] it was 1.6%; in the series with LNCaP [3], 13.4%. Moreover, the Activity entry in series [4] is “Non-Toxic”.
On to `C[C@]12CC[C@H]3[C@@H](CCC4=CC(=O)CC[C@@]43C)[C@@H]1CC[C@@H]2C(=O)Nc1ccccc1`, for which the inhibition at 50 µM is 40.9% in the series with LNCaP [1], 66.2% with LNCaP [2] and 59.4% with LNCaP [3]. Moreover, in series [4], the inhibition at 24 h, 50 µM was 8.7%.
The matching figures for `C[C@]12CC[C@H]3[C@@H](CCC4=CC(=O)CC[C@@]43C)[C@@H]1CC[C@@H]2C(=O)Nc1ccc(F)cc1`: 29.1%, 44.3%, 29% and 4.1%.
The matching figures for `COc1ccc(NC(=O)[C@H]2CC[C@H]3[C@@H]4CCC5=CC(=O)CC[C@]5(C)[C@H]4CC[C@]23C)cc1`: 48.7%, 38.6%, 29.7% and 7.9%.
For `CC(C)(C)NC(=O)[C@H]1CC[C@H]2[C@@H]3CC[C@H]4NC(=O)C=C[C@]4(C)[C@H]3CC[C@]12C` [FINASTERIDE], the inhibition at 50 µM stood at 34.6% in the series with LNCaP [1] and 21.1% in the series with LNCaP [2]. Moreover, in the series with LNCaP [3], the inhibition result is “inactive”. For the same molecule, in series [4], the inhibition at 24 h, 50 µM is 3.7%.
